The species named for experiment [1] is Mus musculus. The experiment can be described thus: Compound was evaluated for its effective dose in the oral mouse cholesterol biosynthesis assay. The experiment is classed as functional.
Another experiment addresses T1, Squalene synthase (Rattus norvegicus, UniProt Q02769).
T1 sequence (Q02769 whole entry): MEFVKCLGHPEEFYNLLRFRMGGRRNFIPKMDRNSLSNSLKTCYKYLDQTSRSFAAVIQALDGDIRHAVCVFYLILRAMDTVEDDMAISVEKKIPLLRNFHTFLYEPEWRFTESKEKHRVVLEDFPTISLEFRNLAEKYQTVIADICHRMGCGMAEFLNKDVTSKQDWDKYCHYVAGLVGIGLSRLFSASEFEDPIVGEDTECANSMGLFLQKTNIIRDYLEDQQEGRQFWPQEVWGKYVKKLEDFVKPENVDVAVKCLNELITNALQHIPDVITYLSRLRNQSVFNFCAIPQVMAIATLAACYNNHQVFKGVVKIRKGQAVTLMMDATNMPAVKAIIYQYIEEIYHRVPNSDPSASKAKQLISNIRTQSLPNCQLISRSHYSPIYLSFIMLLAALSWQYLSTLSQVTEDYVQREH
The experiment can be described thus: Inhibitory activity against squalene synthase in rat liver; not active.

For the next experiment, the species on record is Rattus norvegicus. The experiment can be described thus: Dose required for inhibition of cholesterol biosynthesis in rats was determined. The experiment is classed as functional.
Experiment [2] has as its system Mus musculus. The experiment can be described thus: Ability to inhibit mouse hepatic cholesterol biosynthesis when dosed orally at 6 mg/kg. To be noted: route oral. The experiment is classed as functional.
In experiment [3] the test system is Mus musculus. The experiment can be described thus: Ability to inhibit mouse hepatic cholesterol biosynthesis when dosed orally at 24 mg/kg. The experiment is classed as functional. The settings on record: route oral.
In experiment [4] the test system is Mus musculus. The experiment can be described thus: Ability to inhibit mouse hepatic cholesterol biosynthesis when dosed orally at 12 mg/kg. The experiment is classed as functional. To be noted: route oral.
The mark [5] stands for this setting: Mus musculus, po, read-out: ED50.

Among the data in ChEMBL document CHEMBL1128778 (Bioorg Med Chem Lett, 1995) are ED50, Ki and inhibition in vivo values, retold here.

In the case of `C=C(CCC12OC(C(=O)OCCC)C(O)(C(=O)OCOC(=O)C(C)(C)C)C(C(=O)O)(O1)[C@H](OC(=O)/C=C/[C@@H](C)C[C@@H](C)CC)[C@H]2O)[C@@H](OC(C)=O)[C@H](C)Cc1ccccc1` (stereo partly drawn), in the experiment filed under Mus musculus [1] (setting [5]), the ED50 stood at 2 mg/kg. In addition, the Ki result on Squalene synthase is given as “Not Active”.
The like results for `C=C(CCC12OC(C(=O)OC)C(O)(C(=O)OCOC(=O)C(C)(C)C)C(C(=O)O)(O1)[C@H](OC(=O)/C=C/[C@@H](C)C[C@@H](C)CC)[C@H]2O)[C@@H](OC(C)=O)[C@H](C)Cc1ccccc1` (stereo partly drawn) were, in that order, 3.3 mg/kg and “Not Active”.
For the molecule `C=C(CCC12OC(C(=O)OCC)C(O)(C(=O)OCOC(=O)C(C)(C)C)C(C(=O)O)(O1)[C@H](OC(=O)/C=C/[C@@H](C)C[C@@H](C)CC)[C@H]2O)[C@@H](OC(C)=O)[C@H](C)Cc1ccccc1` (stereo partly drawn), the values for the ED50 in the experiment filed under Rattus norvegicus and in the experiment filed under Mus musculus [1] (setting [5]) were 18 mg/kg and 2.6 mg/kg, respectively. The Ki entry at Squalene synthase is given as “Not Active”.
Consider `C=CCOC(=O)C1OC2(CCC(=C)[C@@H](OC(C)=O)[C@H](C)Cc3ccccc3)OC(C(=O)O)([C@H](OC(=O)/C=C/[C@@H](C)C[C@@H](C)CC)[C@H]2O)C1(O)C(=O)OCOC(=O)C(C)(C)C` (stereo partly drawn), for which the ED50 in the experiment listed under Mus musculus [1] (setting [5]) was determined as 2 mg/kg. The Ki entry at Squalene synthase was “Not Active”.
In the same order, the values of `C=C(CCC12OC(C(=O)OC(C)C)C(O)(C(=O)OCOC(=O)C(C)(C)C)C(C(=O)O)(O1)[C@H](OC(=O)/C=C/[C@@H](C)C[C@@H](C)CC)[C@H]2O)[C@@H](OC(C)=O)[C@H](C)Cc1ccccc1` (stereo partly drawn) are 4 mg/kg and “Not Active”.
Take `C=C(CCC12OC(C(=O)OCCC(C)C)C(O)(C(=O)OCOC(=O)C(C)(C)C)C(C(=O)O)(O1)[C@H](OC(=O)/C=C/[C@@H](C)C[C@@H](C)CC)[C@H]2O)[C@@H](OC(C)=O)[C@H](C)Cc1ccccc1` (stereo partly drawn): the ED50 in the experiment listed under Mus musculus [1] and in the experiment listed under Mus musculus [1] (setting [5]) was 9 mg/kg in each case. Besides, the Ki entry at Squalene synthase is listed as “Not Active”.
For the molecule `C=C(CCC12OC(C(=O)OCCCC)C(O)(C(=O)OCOC(=O)C(C)(C)C)C(C(=O)O)(O1)[C@H](OC(=O)/C=C/[C@@H](C)C[C@@H](C)CC)[C@H]2O)[C@@H](OC(C)=O)[C@H](C)Cc1ccccc1` (stereo partly drawn), in the experiment on Mus musculus [2], the inhibition in vivo at 6 mg/kg turned out to be 18%. For the same molecule, the Ki entry on Squalene synthase is on record as “Not Active”.
Regarding `C=C(CCC12OC(C(=O)OCC(=O)OC)C(O)(C(=O)OCOC(=O)C(C)(C)C)C(C(=O)O)(O1)[C@H](OC(=O)/C=C/[C@@H](C)C[C@@H](C)CC)[C@H]2O)[C@@H](OC(C)=O)[C@H](C)Cc1ccccc1` (stereo partly drawn), the inhibition in vivo at 6 mg/kg in the experiment on Mus musculus [2] stood at 0%. The Ki entry at Squalene synthase is “Not Active”.
The like results for `C=C(CCC12OC(C(=O)OCCOC)C(O)(C(=O)OCOC(=O)C(C)(C)C)C(C(=O)O)(O1)[C@H](OC(=O)/C=C/[C@@H](C)C[C@@H](C)CC)[C@H]2O)[C@@H](OC(C)=O)[C@H](C)Cc1ccccc1` (stereo partly drawn) were, in that order, 18% and “Not Active”.
Consider `C=C(CCC12OC(C(=O)OCCC(C)C)C(O)(C(=O)OCOC(C)=O)C(C(=O)O)(O1)[C@H](OC(=O)/C=C/[C@@H](C)C[C@@H](C)CC)[C@H]2O)[C@@H](OC(C)=O)[C@H](C)Cc1ccccc1` (stereo partly drawn), for which the ED50 in the experiment filed under Mus musculus [1] (setting [5]) turned out to be 6 mg/kg.
As for `C=C(CCC12OC(C(=O)O)C(O)(C(=O)OCOC(=O)C(C)(C)C)C(C(=O)O)(O1)[C@H](OC(=O)/C=C/[C@@H](C)C[C@@H](C)CC)[C@H]2O)[C@@H](OC(C)=O)[C@H](C)Cc1ccccc1` (stereo partly drawn), the inhibition in vivo at 24 mg/kg with Mus musculus [3] was 0%.
Take `C=C(CCC12OC(C(=O)NC(C)C)C(O)(C(=O)OCOC(=O)C(C)(C)C)C(C(=O)O)(O1)[C@H](OC(=O)/C=C/[C@@H](C)C[C@@H](C)CC)[C@H]2O)[C@@H](OC(C)=O)[C@H](C)Cc1ccccc1` (stereo partly drawn): the inhibition in vivo at 24 mg/kg with Mus musculus [3] turned out to be 41%.
Molecule `C=C(CCC12OC(C(=O)NCCOC)C(O)(C(=O)OCOC(=O)C(C)(C)C)C(C(=O)O)(O1)[C@H](OC(=O)/C=C/[C@@H](C)C[C@@H](C)CC)[C@H]2O)[C@@H](OC(C)=O)[C@H](C)Cc1ccccc1` (stereo partly drawn) gave an inhibition in vivo at 12 mg/kg in the experiment on Mus musculus [4] of 18%. For the same molecule, at Squalene synthase, the Ki result is “Not Active”.
With `C=C(CCC12OC(C(=O)OCC(=O)OC(C)(C)C)C(O)(C(=O)OCOC(=O)C(C)(C)C)C(C(=O)O)(O1)[C@H](OC(=O)/C=C/[C@@H](C)C[C@@H](C)CC)[C@H]2O)[C@@H](OC(C)=O)[C@H](C)Cc1ccccc1` (stereo partly drawn), on Squalene synthase, the Ki entry is listed as “Not Active”. This molecule had an inhibition in vivo at 24 mg/kg in the experiment with Mus musculus [3] of 45%.
With `C=C(CCC12OC(C(=O)O)C(O)(C(=O)O)C(C(=O)O)(O1)[C@H](OC(=O)/C=C/[C@@H](C)C[C@@H](C)CC)[C@H]2O)[C@@H](OC(C)=O)[C@H](C)Cc1ccccc1` (stereo partly drawn) [ZARAGOZIC ACID A], in the experiment listed under Mus musculus [1] (setting [5]), the ED50 came out at 100 mg/kg.

The ED50 is the midpoint of the dose-response relation. What is called inhibition in vivo is the change of the read-out against control, counted positive when it falls. A lower inhibition in vivo goes with a weak effect.
